# PubChem BioAssay AID844 (SRMLSC, 2007)
# The source made the active and inactive calls. No rule for the calls is given here.
# Tested on: MRP1 cells, doxorubicin viability shift, 10 uM compound
# Assay: doxorubicin EC50 increase in MRP-1 cells, dose response, cell-based, doxorubicin EC50 shift (AID 844)
# Conditions: for EC50: measured here: doxorubicin EC50 with compound
SMILES,fold increase in Dox EC50,EC50 [µM]
Cc1c(NC(=O)c2ccccc2NS(=O)(=O)c2ccc(Br)cc2)c(=O)n(-c2ccccc2)n1C,0.65 (inactive),3.53
COc1ccc(/C=C/C(=O)NCc2cnn(C)c2C)cc1COc1ccc(Br)cc1,0.68 (inactive),3.7
O=C1CSC(=NC(=O)c2ccccc2)N1,0.7 (inactive),3.79
COc1ccccc1NC(=O)CSC(N)=O,0.81 (inactive),4.4
COc1ccc(C(=O)Nc2ccc(Cl)c(S(=O)(=O)Nc3ccccc3OC)c2)cc1,0.57 (inactive),3.05
C=CCOc1c(CNc2ccc(C(=O)O)cc2)cccc1OCC,0.59 (inactive),3.21
CNC(=O)CSc1nnc(COc2ccc(Cl)cc2)n1CCOC,1.29 (inactive),6.95
CCN(CC)S(=O)(=O)c1cc(NC(=O)C(=O)c2c(-c3ccccc3)cc3ccccn23)ccc1C,1.28 (inactive),6.91
O=C(Nc1ccc(O)cc1)C1CCCO1 (centres undefined),0.91 (inactive),4.92
COc1ccc(-n2c(C)nc(=O)c(-c3ccccc3)c2C)cc1,0.83 (inactive),4.47
COc1ccccc1NC(=O)CSC1=NCCN1,0.68 (inactive),3.7
Cc1cccc2cc(CN(Cc3cccs3)S(=O)(=O)c3ccc4c(c3)OCCO4)c(=O)[nH]c12,1.47 (inactive),7.94
O=C1C(Cc2cccc([N+](=O)[O-])c2)SC(=Nc2ccccc2)N1c1ccccc1 (centres undefined),0.73 (inactive),3.94
CC(CCc1ccccc1)NC(=O)CN1CCN(Cc2ccc(Cl)cc2)C1=O (centres undefined),1.03 (inactive),5.58
Cc1cc(C)cc(NC(=O)c2oc3ccccc3c2COc2ccccc2)c1,0.88 (inactive),4.78
O=C(/C=C/NNC(=O)c1ccccc1)c1ccc(Br)cc1,0.53 (inactive),2.86
Cc1cc(C(=O)N/N=C/c2cc(Br)ccc2OC(=O)c2ccccc2)n[nH]1,0.15 (inactive),0.808
Cn1cc(Br)c(C(=O)NNC(=O)c2ccc(Cl)cc2)n1,1.23 (inactive),6.63
Cc1nc(=O)c(-c2ccccc2)c(C)n1-c1cccc(C(=O)O)c1,1.26 (inactive),6.82
O=C(NCc1ccccn1)c1cc(-c2ccc(-c3ccccc3)cc2)nc2ccccc12,0.57 (inactive),3.1
O=C(CSc1ncn[nH]1)NCCC(c1ccccc1)c1ccccc1,0.56 (inactive),3.03
O=C1c2cccc3cccc(c23)C(=O)N1CCN1CCN(CC(O)COc2ccccc2)CC1 (centres undefined),0.32 (inactive),1.71
COC(=O)CC1SC(=O)NC1=O (centres undefined),0.9 (inactive),4.84
CCSC(C)CC1C/C(=N/O)c2c(CC)noc2C1 (centres undefined),1.27 (inactive),6.85
Cc1ccc2nc(NC(=O)CCNS(=O)(=O)c3cccs3)sc2c1,0.56 (inactive),3
Cc1nc(NC(=S)NC(=O)c2cccs2)sc1C(=O)N(C)C,1.04 (inactive),5.59

SMILES,fold increase in Dox EC50,EC50 [µM]
Cc1cccc(C2CC(c3ccccc3)Nc3ncnn32)c1 (centres undefined),0.46 (inactive),2.46
COc1ccc(NC(=O)COC(=O)c2c3c(nc4ccccc24)CCCC3)cc1Cl,0.68 (inactive),3.65
CCOC(=O)C1=C(C)Nc2ncnn2C1c1cccnc1 (centres undefined),0.83 (inactive),4.5
Cc1ccccc1NC(=O)CSC1=NCCN1,0.69 (inactive),3.73
Cc1cc(C)n(CCc2nc(-c3ccc(-c4ccccc4)cc3)cs2)n1,1.82,9.8
CC1(C)CC(=O)C2=C(C1)N=C1SCCC(=O)N1C2c1ccc(C(F)(F)F)cc1 (centres undefined),1.21 (inactive),6.51
Clc1ccc(Cc2nnc(-c3ccccc3Br)o2)cc1,1.14 (inactive),6.15
Cc1ccc(N2C(=O)Nc3ccc(Br)cc3C2(O)C(=O)NCCCN(C)C)cc1C (centres undefined),0.69 (inactive),3.72
Oc1c(C(c2cccs2)N2CCN(c3ccccc3)CC2)sc2ncnn12 (centres undefined),0.93 (inactive),5.02
CC(/C=C1\SC(=O)N(CC(=O)Nc2ccc(O)cc2)C1=O)=C\c1ccccc1,0.68 (inactive),3.7
CCc1nnc(NC(=O)C2CCCN2S(=O)(=O)c2ccc(C)cc2)s1 (centres undefined),1.04 (inactive),5.6
CCn1c(COc2ccc(Cl)cc2)nnc1SCc1nc2ccccc2[nH]1,0.35 (inactive),1.87
O=C1OC(Nc2ccccn2)c2ccccc21 (centres undefined),0.81 (inactive),4.35
COc1ccc(CSC2=NCCN2)cc1Cl,0.63 (inactive),3.4
CC(Oc1ccc(Cl)cc1Cl)C(=O)NC1CCSC1=O (centres undefined),1.98,10.7
O=C(CSc1nccn1-c1cccc(Cl)c1)Nc1ccc2c(c1)OCCO2,1.22 (inactive),6.58
Cc1noc(/C=C/N(C)C)c1S(=O)(=O)N1CCCC(C(=O)NCc2cccs2)C1 (centres undefined),1.32 (inactive),7.11
CCOc1ccc2nc(SCC#N)c(C#N)cc2c1,0.3 (inactive),1.62
CCOC(=O)c1ccccc1NC(=O)C1COc2ccccc2O1 (centres undefined),0.42 (inactive),2.28
O=C(CC(NC(=O)C(F)(F)F)c1ccccc1)Nc1nnc(CCc2ccccc2)s1 (centres undefined),1.85,9.97
COc1ccc(N2C(=O)CC(N3CCC(O)(c4cccc(C(F)(F)F)c4)CC3)C2=O)cc1 (centres undefined),0.89 (inactive),4.82
Cc1ccc(NC(=O)CCNC(=O)c2ccc(Cl)cc2)cc1F,1.15 (inactive),6.19
O=C(Nc1ccc(C2CC2(Cl)Cl)cc1)c1ccccc1Br (centres undefined),1.6,8.66
CC(C)CCOc1ncnc2c1sc1nc3c(cc12)CSC(C)(C)C3,0.51 (inactive),2.76
COc1ccc(Cl)cc1NC(=O)CSc1nnc(COc2ccccc2)n1N,0.86 (inactive),4.64
CC(/C=N/NC(=O)c1nn(C)c(C)c1Br)=C\c1ccccc1,1.25 (inactive),6.72

SMILES,fold increase in Dox EC50,EC50 [µM]
Cc1onc(-c2ccccc2Cl)c1C(=O)OCC(=O)Nc1ccc2c(c1)OCO2,1.19 (inactive),6.42
COc1ccc(NS(=O)(=O)c2cc(NC(=O)CNC(=O)c3ccc(C)s3)ccc2Cl)cc1,1.44 (inactive),7.78
O=c1[nH]c(C2CCCN(S(=O)(=O)c3ccccc3)C2)nc2c1nnn2Cc1ccccc1 (centres undefined),0.11 (inactive),0.603
CC(C)CC(=O)n1sc(NC(=O)c2ccccc2)nc1=O,0.92 (inactive),4.95
Cc1cccc(Nc2nnc(SCC(=O)Nc3cccnc3Cl)s2)c1,0.61 (inactive),3.3
CC1=NN(C(=O)c2ccc(Cn3nc(C)c(Br)c3C)cc2)C(O)(C(F)(F)F)C1 (centres undefined),1.15 (inactive),6.18
C=C(Cl)COc1ccc2c(CCCC)cc(=O)oc2c1,0.81 (inactive),4.35
O=C(COc1ccc(Cl)cc1)NCc1nnc(SCC(=O)NCc2ccc3c(c2)OCO3)o1,1.06 (inactive),5.74
COc1cccc(/C=N\NC(=O)C2=NNC(=O)C2C)c1O (centres undefined),1.2 (inactive),6.47
CCc1nnc(NC(=O)C2COc3ccccc3O2)s1 (centres undefined),1.1 (inactive),5.95
O=C(/C(=C/O)N=Nc1ccccc1)c1ccncc1,1.4 (inactive),7.54
COc1ccc(C2C(C(=O)Nc3cccc(C)n3)CCC(=O)N2c2ccc(OC)cc2)cc1 (centres undefined),0.64 (inactive),3.44
O=C1/C(=C\c2ccco2)SC(=S)N1c1ccc(O)cc1,0.34 (inactive),1.84
Cc1ccc(C(=O)NC(C)c2ccc(F)cc2)cc1 (centres undefined),0.68 (inactive),3.68
N#C/C(=N\Nc1ccccc1F)C(=N)N1CCCCC1,0.79 (inactive),4.26
COC(=O)c1cn(NC(=O)c2cccnc2)c(=O)c2ccccc12,0.52 (inactive),2.79
COc1ccc(OCc2nnc(SCC(=O)N3c4ccccc4Sc4ccc(Cl)cc43)o2)cc1,1.1 (inactive),5.92
Cc1nc(NC(=S)NC(=O)c2ccccc2)sc1C(=O)N(C)C,1.24 (inactive),6.71
O=C(NC(=S)NC(=O)c1ccccc1F)c1ccccc1F,1.44 (inactive),7.79
CCOC(=O)/C=C1\SCC(=O)N1CCOc1cccc(Br)c1,1.2 (inactive),6.5
O=C1CC(N2CCC(n3c(=O)[nH]c4ccccc43)CC2)C(=O)N1c1ccc(F)cc1 (centres undefined),1.41 (inactive),7.59
Cc1sc2nc(C3CC3)nc(N3CCN(S(=O)(=O)c4ccc(F)cc4)CC3)c2c1C,0.3 (inactive),1.63
O=C(CSc1ncn[nH]1)Nc1ccc(Br)cc1F,0.98 (inactive),5.28
Cc1ccc(CC2S/C(=C(/C#N)C(=O)N3CCOCC3)N(c3ccccc3)C2=O)cc1 (centres undefined),1.18 (inactive),6.38
CCOC(=O)c1sc2nc3n(c(=O)c2c1C)CCCCC3,0.52 (inactive),2.81
